Some test systems named below: A549 NSCLC; COLO 205 colon; EKVX NSCLC; HCT-15 colon; HOP-62 NSCLC; HOP-92 NSCLC; LOX IMVI melanoma; MDA-MB-435; MDA-N; NCI-H226 lung; NCI/ADR-RES ovarian; SF-268 CNS; SK-MEL-2 melanoma; SK-MEL-5 melanoma; SNB-19 CNS; SNB-75 CNS; SR leukemia; SW-620 colon; TK-10 renal; U251 CNS.
What all share (assay): inhibition of tumour cell growth, NCI panel, 48 h

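Growth conditions: 96-well plates. Treatment: test compound, 48 hours, 5 concentrations. Analysis: linear interpolation between bracketing concentrations; unreached endpoints set to highest concentration. TGI: total growth inhibition.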

On to `C[n+]1cn(-c2nc3ccccc3nc2[N-]S(=O)(=O)c2ccccc2)c2ccccc21`, for which the TGI with A549 NSCLC, with COLO 205 colon, with EKVX NSCLC, in the assay with HCT-15 colon, with HOP-62 NSCLC and in the assay on HOP-92 NSCLC was more than 100 µM throughout. In addition, the TGI in the assay with LOX IMVI melanoma, in the assay with MDA-MB-435, in the assay on MDA-N, with NCI-H226 lung, with NCI/ADR-RES ovarian and in the assay with SF-268 CNS was more than 100 µM throughout. The TGI with SK-MEL-2 melanoma, in the assay with SK-MEL-5 melanoma, in the assay on SNB-19 CNS, in the assay with SNB-75 CNS, with SR leukemia and with SW-620 colon was more than 100 µM in each case. In addition, the TGI in the assay on TK-10 renal and with U251 CNS was more than 100 µM in each case.
As to `CCNC(=S)NNC(=O)CSc1nc2ccc(I)cc2c(=O)n1Cc1ccccc1`, the TGI with A549 NSCLC was more than 100 µM; in the assay on COLO 205 colon, more than 100 µM; in the assay with EKVX NSCLC, more than 88 µM; with HCT-15 colon, more than 100 µM; with HOP-62 NSCLC it was more than 100 µM; in the assay on HOP-92 NSCLC it was 97.7 µM. The TGI is more than 100 µM in the assay on LOX IMVI melanoma; more than 100 µM in the assay on MDA-MB-435; more than 100 µM in the assay with MDA-N; more than 95.5 µM with NCI-H226 lung; more than 100 µM with NCI/ADR-RES ovarian; more than 100 µM in the assay with SF-268 CNS. Also, the TGI in the assay with SK-MEL-2 melanoma is more than 94.9 µM; in the assay with SK-MEL-5 melanoma it was more than 100 µM; in the assay on SNB-19 CNS it was more than 100 µM; with SNB-75 CNS, more than 100 µM; in the assay with SR leukemia, more than 100 µM; in the assay on SW-620 colon, more than 100 µM. Besides, the TGI in the assay with TK-10 renal and in the assay with U251 CNS was more than 100 µM each time.
Take `COc1ccc(C2C3=C(COC3=O)OC(C)(C)Oc3cc4c(cc32)OCO4)cc1OC` (stereo not given): the TGI was more than 100 µM in the assay on A549 NSCLC; 48.1 µM in the assay on COLO 205 colon; more than 89.8 µM in the assay with EKVX NSCLC; more than 100 µM in the assay with HCT-15 colon; more than 100 µM in the assay with HOP-62 NSCLC; more than 73.8 µM with HOP-92 NSCLC. Also, the TGI was more than 100 µM in the assay on LOX IMVI melanoma; 41.3 µM with MDA-MB-435; 39.2 µM in the assay on MDA-N; more than 100 µM with NCI-H226 lung; 58.7 µM in the assay with NCI/ADR-RES ovarian; more than 31.6 µM with SF-268 CNS. The TGI is more than 100 µM in the assay on SK-MEL-2 melanoma; more than 74.3 µM in the assay on SK-MEL-5 melanoma; more than 100 µM with SNB-19 CNS; 24.8 µM in the assay with SNB-75 CNS; more than 100 µM with SR leukemia; more than 100 µM with SW-620 colon. In addition, the TGI in the assay with TK-10 renal and in the assay on U251 CNS was more than 100 µM in each case.
As to `O=C1NC(=Nc2ccccc2Cl)N/C1=C\c1ccc(Cl)cc1Cl`, the TGI with A549 NSCLC, in the assay on COLO 205 colon, with EKVX NSCLC, with HCT-15 colon, in the assay with HOP-62 NSCLC and with HOP-92 NSCLC was more than 100 µM each time. Besides, the TGI in the assay with LOX IMVI melanoma was more than 100 µM; in the assay with MDA-MB-435 it was more than 100 µM; with MDA-N it was more than 100 µM; with NCI-H226 lung it was 57.6 µM; in the assay with NCI/ADR-RES ovarian, more than 100 µM; with SF-268 CNS it was more than 100 µM. The TGI in the assay on SK-MEL-2 melanoma was 58.4 µM; in the assay on SK-MEL-5 melanoma, more than 100 µM; with SNB-19 CNS, more than 100 µM; in the assay on SNB-75 CNS, 93 µM; in the assay with SR leukemia, more than 100 µM; in the assay on SW-620 colon, more than 100 µM. The TGI in the assay with TK-10 renal and in the assay on U251 CNS was more than 100 µM throughout.
For the compound `O=P1(Cc2ccccc2)c2ccccc2-c2ccccc21`, the TGI in the assay with A549 NSCLC was more than 94.6 µM; with COLO 205 colon it was 17 µM; in the assay on EKVX NSCLC it was more than 73.1 µM; in the assay on HCT-15 colon, more than 100 µM; in the assay with HOP-62 NSCLC, more than 52.6 µM; with HOP-92 NSCLC it was 6.99 µM. The TGI with LOX IMVI melanoma is 23.1 µM; in the assay with MDA-MB-435 it was 12.3 µM; in the assay with MDA-N it was 10.9 µM; in the assay with NCI-H226 lung, 31.2 µM; in the assay on NCI/ADR-RES ovarian it was more than 100 µM; in the assay on SF-268 CNS, more than 100 µM. Moreover, the TGI is 7.49 µM in the assay on SK-MEL-2 melanoma; 4.18 µM in the assay on SK-MEL-5 melanoma; more than 37.8 µM with SNB-19 CNS; more than 50.7 µM in the assay on SNB-75 CNS; 26.9 µM in the assay on SR leukemia; 35 µM with SW-620 colon. Besides, the TGI is 36 µM in the assay with TK-10 renal and 70.5 µM with U251 CNS.
As for `C#C[C@]1(O)CC[C@H]2[C@@H]3CCC4=C/C(=N/OC(=O)c5cccc6c(=O)c7ccccc7[nH]c56)CCC4[C@H]3CC[C@@]21CC` (stereo not given in full), the TGI with A549 NSCLC was more than 100 µM; in the assay on COLO 205 colon, more than 79.9 µM; in the assay on EKVX NSCLC, more than 100 µM; in the assay with HCT-15 colon, more than 47.7 µM; with HOP-62 NSCLC, more than 100 µM; in the assay with HOP-92 NSCLC, more than 100 µM. The TGI was more than 56.6 µM in the assay with LOX IMVI melanoma; more than 100 µM in the assay on MDA-MB-435; more than 100 µM in the assay with MDA-N; more than 100 µM in the assay on NCI-H226 lung; more than 100 µM in the assay on NCI/ADR-RES ovarian; more than 100 µM in the assay on SF-268 CNS. The TGI in the assay with SK-MEL-2 melanoma is more than 100 µM; with SK-MEL-5 melanoma it was more than 53.1 µM; in the assay with SNB-19 CNS it was more than 100 µM; with SNB-75 CNS, more than 100 µM; in the assay with SR leukemia, 35.7 µM; with SW-620 colon, more than 63.5 µM. The TGI with TK-10 renal and in the assay on U251 CNS was more than 100 µM each time.

For the origin of these results see PubChem BioAssay (NCI).
